In publication PMC8145596, “Novel Chemically Modified Curcumin (CMC) Derivatives Inhibit Tyrosinase Activity and Melanin Synthesis in B16F10 Mouse Melanoma Cells” (Biomolecules, 2021):
Entries after “also recorded” stand apart in the source; their conditions may differ.

Experiments:
[1] = target: T1, mushroom tyrosinase (Agaricus bisporus, UniProt C7FF04); assay: Monophenolase activity assay of mushroom tyrosinase (L-Tyrosine substrate); assay type: biochemical; conditions: for mechanism of inhibition of monophenolase activity: L-B and Dixon plots, nonlinear curve fitting; for Ki: read-out: apparent Ki, monophenolase (L-TYR)
T1 sequence (C7FF04 1-392): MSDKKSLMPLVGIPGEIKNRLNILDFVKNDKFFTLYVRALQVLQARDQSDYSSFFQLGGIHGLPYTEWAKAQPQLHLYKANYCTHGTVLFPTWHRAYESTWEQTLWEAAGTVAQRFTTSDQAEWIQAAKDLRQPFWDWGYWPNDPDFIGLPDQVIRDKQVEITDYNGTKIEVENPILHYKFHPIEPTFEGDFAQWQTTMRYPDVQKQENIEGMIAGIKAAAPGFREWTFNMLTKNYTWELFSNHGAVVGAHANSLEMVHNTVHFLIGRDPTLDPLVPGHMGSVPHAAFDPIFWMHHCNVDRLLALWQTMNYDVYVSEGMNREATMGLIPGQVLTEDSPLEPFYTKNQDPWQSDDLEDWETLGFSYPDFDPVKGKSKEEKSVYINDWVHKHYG
Procedure: The direct effects of the compounds on the monophenolase activity of tyrosinase were tested using mushroom tyrosinase enzyme with a fixed concentration of L-Tyrosine (L-Tyr) as the substrate. Briefly, 80 µL of compounds prepared at different concentrations in 50 mM sodium phosphate (pH 6.8) buffer were added to wells of a 96-well microplate followed by 100 µL of 2 mM L-Tyr solution. The reaction was initiated by adding 20 µL of mushroom tyrosinase (final concentration of enzyme in wells was 12.5 µg/mL) and was monitored by measuring absorbance at 475 nm every 30 s over a 30 min period, using a microplate reader (Versamax®) in the kinetic mode. The slopes of the plots of absorbance vs. time were calculated for comparison of enzyme activity in the presence of each of the inhibitors to that of an inhibitor-free control and reported as percentage of control activity (%).
(§1) In order to study the mechanism of inhibition of tyrosinase activity by the compounds as a function of substrate concentration, we conducted a kinetic study of monophenolase and diphenolase activities at multiple concentrations of substrates. For the monophenolase activity assay, the final concentration of enzyme was 12.5 µg/mL and the final substrate concentrations were 0.125, 0.25, 0.5 and 1 mM, while for diphenolase activity assay, the final concentration of enzyme was 3.5 µg/mL and the final substrate concentrations ranged from 0.1–3 mM. The slopes from the linear range of the progress curves of absorbance at 475 nm vs. time were recorded as apparent velocities and the reciprocal values, 1/v, were plotted as functions of the reciprocal values of the substrate concentrations at different fixed inhibitor concentrations according to the method of Lineweaver and Burk (L-B). Dixon plots of the reciprocal velocity values, (1/v), as functions of the inhibitor concentrations at different fixed substrate concentrations were also constructed to investigate further the apparent mode of inhibition by the compounds.
(§2) We have also analyzed the inhibition data using nonlinear curve fitting algorithms which are more robust than the linearized L-B and Dixon plotting methods that can weigh the data from evenly spaced concentrations disproportionately. The inhibition constants were calculated by non-linear least squares curve fitting using a modified Levenberg-Marquardt algorithm and data was fitted to models of pure competitive, noncompetitive, and uncompetitive inhibition using Enzfitter software (version 2.0, Biosoft, Cambridge, UK). This analysis was undertaken to assess the apparent potency of compounds, PC, CMC2.24, and CMC2.23 for each putative mode of inhibition.

[2] = target: T1, mushroom tyrosinase; assay: Diphenolase activity assay of mushroom tyrosinase (L-DOPA substrate); assay type: biochemical; conditions: for mechanism of inhibition of diphenolase activity: L-B and Dixon plots, nonlinear curve fitting; for Ki: read-out: apparent Ki, diphenolase (L-DOPA); for diphenolase inhibitory potency: compared with CMC2.24
Procedure: The direct effects of the compounds on the diphenolase activity of tyrosinase were tested using mushroom tyrosinase with a fixed concentration of L-DOPA as the substrate. Briefly, 80 µL of each compound prepared at different concentrations in 50 mM sodium phosphate buffer (pH 6.8) was added to wells of a 96-well microplate, followed by 100 µL of freshly prepared substrate solution (3 mM L-DOPA in buffer). The reaction was initiated by adding 20 µL of mushroom tyrosinase (final concentration of enzyme in wells was 3.5 µg/mL). The production of Dopachrome was monitored by measuring the absorbance at 475 nm every 30 s for a period of 30 min at 30 °C, using a microplate reader in the kinetic mode. The slopes of the plots of absorbance vs. time were calculated for comparison of enzyme activity in the presence of each of the inhibitors to that of the inhibitor-free control.
as §1, §2

[3] = Copper chelating assay (pyrocatechol violet)
Procedure: Copper chelation can be detected by a PV colorimetric assay as reported in other studies and similar to the method reported in our previous study. Briefly, 100 µL aliquots of different concentrations of compounds prepared in 50 mM sodium acetate buffer (pH 6.0) were added to a 96-well plate. The control group consisted of buffer only, while KA at 500 µM served as a positive control. Copper sulfate (2 mM; 10 µL) was added to each of the samples and incubated for 10 min. Next, 10 µL of 2 mM PV was added and the plate was further incubated for 20 min. The absorbance was read at 632 nm using a microplate reader; a lower absorbance compared to that of the buffer control was indicative of copper chelation.

[4] = DPPH radical scavenging antioxidant assay; conditions: 60 μM DPPH, 30 min
Procedure: Melanin production catalyzed by the tyrosinase pathway is often associated with higher levels of oxidative stress and reactive oxygen species (ROS) generation. […] DPPH (2,2-Diphenyl-1-picrylhydrazyl) is a stable free radical which changes color from purple to yellow upon reduction by antioxidant compounds. Briefly, 180 µL of DPPH reagent that was prepared in methanol was combined with 20 µL of different concentrations of the compounds in a 96-well plate to give a final DPPH concentration of 60 μM in each well. A control group consisted of DPPH only while ascorbic acid (AA) at 20 µM was used as a positive control. The plate was covered and incubated for 30 min, after which the absorbance was read at 517 nm and the DPPH radical scavenging activity was reported as % of control.

[5] = test system: MNT-1 human melanoma cells; assay: Melanin content assay in MNT-1 cells; assay type: cell-based; conditions: 48 h; CMC2.24 at 20 µM; preliminary evaluation
Procedure: II. Experiments in MNT-1 human melanoma cells
MNT-1 cells (kindly provided by Dr. Michael Marks, University of Pennsylvania) were cultured using DMEM supplemented with 1 % MEM (minimum essential medium), 18 % HI-FBS, 10 % AIM-V medium (Gibco) and 1 % antibiotic mixture.
MNT-1 human melanoma cells (2 × 10^4 cells/ well) were seeded in a 96-well plate and cultured for 96 h. After this, the test compounds were added in complete medium and cultures were maintained for 48 h, followed by conducting the MTS assay to detect cytotoxicity similar to methods reports in main text. The results were expressed as % normalized to untreated control group.
MNT-1 human melanoma cells were seeded at 2.2 × 10^5 cells/well in 12-well plates and incubated for 24 hours. […] Briefly, the absorbance of melanin was measured at 475 nm and was normalized to the total protein contents and reported as relative melanin levels as a % of control.
Figure S3: Viability of MNT-1 cells treated with A) PC, CMC2.14 and CMC2.5 and B) CMC2.23 and CMC2.24 for a duration of 48 h evaluated by MTS assay; Data for A)-B) are mean ± SD of 3-4 determinations; C) Melanin content in cultures of MNT-1 cells treated for 48 h with different concentrations of PC and CMCs, Data are mean ± SD of values combined from two independent experiments. * p < 0.05 vs. control (Ctrl); One-way ANOVA with Tukey’s […]

[6] = fit to pure competitive inhibition
[7] = fit to pure noncompetitive inhibition
[8] = fit to pure uncompetitive inhibition

## 1,7-bis(4-hydroxy-3-methoxyphenyl)-1,6-heptadien-3,5-dione [PC, reference compound]
[1]; 10 μM compound
  inhibition of monophenolase activity: 14.41%
[1]; 20 μM compound
  inhibition of monophenolase activity: 21.31%
[1]; 25 μM compound
  inhibition of monophenolase activity: 22.10%
[1]
  mechanism of inhibition of monophenolase activity: not a pure competitive inhibitor; also recorded: mixed inhibitor
[1]; [6]
  Ki: 7.74 µM
[1]; [7]
  Ki: 50.8 µM
[1]; [8]
  Ki: 40.2 µM
[1]; fixed substrate concentration (L-Tyr), read-out: IC50 for Monophenolase Inhibition
  IC50: 67 ± 2.4 µM
[2]; 5 μM compound
  inhibition of diphenolase activity: 14.47%
[2]; 10 μM compound
  inhibition of diphenolase activity: 12.41%
[2]; 20 μM compound
  inhibition of diphenolase activity: 14.19%
[2]; 25 μM compound
  inhibition of diphenolase activity: 16.39%
[2]
  mechanism of inhibition of diphenolase activity: not a pure competitive inhibitor; also recorded: mixed inhibitor
[2]; competitive model fit
  Vmax, diphenolase (L-DOPA): 44.67 mM/min
[2]; [6]
  Ki: 45.1 µM
[2]; [7]
  Ki: 164 µM
[2]; [8]
  Ki: 129 µM
[2]; fixed substrate concentration (L-DOPA), read-out: IC50 for Diphenolase inhibition
  IC50: 299 ± 35.6 µM
[2]; noncompetitive model fit
  Vmax, diphenolase (L-DOPA): 48.28 mM/min
[2]; uncompetitive model fit
  Vmax, diphenolase (L-DOPA): 47.52 mM/min
[3]
  effect on copper chelation: did not show any effect on copper chelation
[4]
  DPPH radical scavenging activity: high radical scavenging activity
[5]
  melanin inhibition in MNT-1 cells: ineffective

## COC(=O)/C(C(=O)/C=C/c1ccc(O)c(OC)c1)=C(O)\C=C\c1ccc(O)c(OC)c1 [CMC2.5, 4-methoxycarbonyl curcumin]
[2]
  diphenolase inhibitory potency: somewhat weaker inhibitory potency
[4]
  DPPH radical scavenging activity: significant radical scavenging activity

## COC(=O)/C(C(=O)/C=C/c1ccc(O)cc1)=C(O)\C=C\c1ccc(O)cc1 [CMC2.14]
[2]
  diphenolase inhibitory potency: somewhat weaker inhibitory potency
[4]
  DPPH radical scavenging activity: did not demonstrate such activity

## COc1cc(/C=C/C(=O)/C(C(=O)Nc2ccccc2)=C(O)/C=C/c2ccc(O)c(OC)c2)ccc1O [CMC2.23]
[1]
  mechanism of inhibition of monophenolase activity: mixed, but predominantly competitive, mode of inhibition
[2]
  mechanism of inhibition of diphenolase activity: mixed mechanism of inhibition; also recorded: mixed, but predominantly competitive, mode of inhibition
  diphenolase inhibitory potency: somewhat weaker inhibitory potency
[2]; competitive model fit
  Vmax, diphenolase (L-DOPA): 38.0 mM/min
[2]; noncompetitive model fit
  Vmax, diphenolase (L-DOPA): 39.05 mM/min
[2]; uncompetitive model fit
  Vmax, diphenolase (L-DOPA): 39.0 mM/min
[4]
  DPPH radical scavenging activity: significant radical scavenging activity

## O=C(/C=C/c1ccc(O)cc1)/C(C(=O)Nc1ccccc1)=C(O)/C=C/c1ccc(O)cc1 [CMC2.24]
[1]; 5 μM compound, 1 mM L-Tyr final
  inhibition at 5 µM: 32.1%
[1]; 10 μM compound
  inhibition at 10 µM: 34.7%
[1]; 20 μM compound
  inhibition at 20 µM: 34.8%
[1]; 25 μM compound
  inhibition at 25 µM: 37%
[1]
  mechanism of inhibition of monophenolase activity: mixed mode of inhibition with a predominantly competitive mechanism
[2]; 20 μM compound
  inhibition at 20 µM: 35.4%
[2]; 25 μM compound
  inhibition at 25 µM: 38.2%
[2]
  mechanism of inhibition of diphenolase activity: mixed mode of inhibition with a predominantly competitive mechanism
[2]; competitive model fit
  Vmax, diphenolase (L-DOPA): 36.0 mM/min
[2]; noncompetitive model fit
  Vmax, diphenolase (L-DOPA): 43.69 mM/min
[2]; uncompetitive model fit
  Vmax, diphenolase (L-DOPA): 41.99 mM/min
[3]; 20 µM, compared to the control
  copper chelating activity: 11.86%
[4]
  DPPH radical scavenging activity: did not demonstrate such activity
[5]
  melanin inhibition in MNT-1 cells: significant attenuation of melanin levels
